# Results as given in patent US20060079453A1, “Hla binding peptides and their uses” (priority 2002, published 2006).
# pIC50: −log10 of the molar value. Where two headings read alike, the source gives them in different places. No end group written: not given here.
# How the values were obtained:
# Test in all cases: biochemical
# Assay type in all cases: binding
# HLA-DR DRB1*0101 (DR1) = HLA-DR DRB1*0101 (DR1) (Homo sapiens, UniProt P01903+P01911, A100R/D57E/F55L/F60I/F76Y/I96L/L162R/M171V/P40L/Q125E/R42F/V115G/Y59C)
# HLA-DR DRB1*0401 (DR4) = HLA-DR DRB1*0401 (DR4) (Homo sapiens, UniProt P01903+P01911, A100K/A169T/F76Y/I96L/K127E/L162R/M171V/N62H/P40V/Q125Y/R42H/S133A/S149N/S66Y/V115G/V209L/W38E)
# HLA-DR DRB1*0701 (DR7) = HLA-DR DRB1*0701 (DR7) (Homo sapiens, UniProt P01903+P01911, A100R/A102G/A103Q/D57E/D86V/E43K/F76Y/K127E/L162R/M171V/P40G/Q125H/Q99D/R33Q/R42Y/R54Q/S133A/S66F/T210M/V115G/Y107V/Y59L/Y89S)
# HLA-DR DRB5*0101 (DR51) = HLA-DR DRB5*0101 (DR51) (Homo sapiens, UniProt P01903+Q30154); details: DRB5 *0101
# HLA-DR DRB4*0101 (DR53) = HLA-DR DRB4*0101 (DR53) (Homo sapiens, UniProt P01903+P13762, G164S)
# HLA-DR DRB1*1501 (DR15) = HLA-DR DRB1*1501 (DR15) (Homo sapiens, UniProt P01903+P01911)
# HLA-DR DRB1*1302 (DR13) = HLA-DR DRB1*1302 (DR13) (Homo sapiens, UniProt P01903+P01911, A100E/A169T/K41T/L162R/M171V/P40S/Q125H/Q178H/Q39Y/Q99D/R42S/S66N/T262R/V115G/W38E/Y61H); details: read-out: DRBI *1302
# Chain of HLA-DR DRB1*1302 (DR13) (P01903 26-254 limits assumed, other chains not shown): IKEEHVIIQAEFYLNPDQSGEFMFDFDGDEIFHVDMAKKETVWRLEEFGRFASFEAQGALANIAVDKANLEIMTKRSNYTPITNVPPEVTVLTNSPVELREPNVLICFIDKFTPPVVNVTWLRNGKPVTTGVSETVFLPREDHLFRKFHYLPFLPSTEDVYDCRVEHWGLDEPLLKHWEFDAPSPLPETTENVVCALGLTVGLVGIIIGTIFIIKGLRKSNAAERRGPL
compound,measurement,setting,value
C[C@H](N)C(=O)N[C@@H](C)C(=O)N[C@@H](C)C(=O)N[C@@H](C)C(=O)N[C@@H](C)C(=O)N[C@@H](C)C(=O)N[C@@H](C)C(=O)N[C@@H](C)C(=O)N[C@@H](C)C(=O)N[C@@H](C)C(=O)N[C@@H](C)C(=O)N[C@@H](C)C(=O)N[C@@H](CC(N)=O)C(=O)O,pIC50,HLA-DR DRB1*0101 (DR1); DRB1 *0101,≤ 4.30
same,pIC50,HLA-DR DRB1*0401 (DR4); DRB1 *0401,6.30
C[C@H](N)C(=O)N[C@@H](C)C(=O)N[C@@H](C)C(=O)N[C@@H](C)C(=O)N[C@@H](C)C(=O)N[C@@H](C)C(=O)N[C@@H](C)C(=O)N[C@@H](C)C(=O)N[C@@H](C)C(=O)N[C@@H](C)C(=O)N[C@@H](C)C(=O)N[C@@H](CC(N)=O)C(=O)N[C@@H](C)C(=O)O,pIC50,HLA-DR DRB1*0101 (DR1); DRB1 *0101,≤ 4.30
same,pIC50,HLA-DR DRB1*0401 (DR4); DRB1 *0401,6.00
C[C@H](N)C(=O)N[C@@H](CO)C(=O)N[C@@H](C)C(=O)N[C@@H](C)C(=O)N[C@@H](C)C(=O)N[C@@H](C)C(=O)N[C@@H](C)C(=O)N[C@@H](C)C(=O)N[C@@H](C)C(=O)N[C@@H](C)C(=O)N[C@@H](C)C(=O)N[C@@H](C)C(=O)N[C@@H](C)C(=O)O,pIC50,HLA-DR DRB1*0101 (DR1); DRB1 *0101,≤ 4.30
CC(C)C[C@H](NC(=O)[C@H](CCCCN)NC(=O)[C@H](C)NC(=O)[C@@H](NC(=O)[C@H](CCCCN)NC(=O)[C@H](CCCNC(=N)N)NC(=O)[C@H](CO)NC(=O)[C@H](CC(C)C)NC(=O)[C@H](C)NC(=O)[C@H](C)NC(=O)[C@H](CCC(N)=O)NC(=O)[C@H](Cc1ccccc1)NC(=O)[C@H](CCC(=O)O)NC(=O)[C@H](CO)NC(=O)[C@@H](N)CCC(=O)O)C(C)C)C(=O)O,pIC50,HLA-DR DRB1*0401 (DR4); DRB1 *0401,6.24
C[C@H](NC(=O)[C@H](C)NC(=O)[C@H](C)NC(=O)[C@H](C)NC(=O)[C@H](C)NC(=O)[C@H](C)NC(=O)[C@H](C)NC(=O)[C@H](C)NC(=O)[C@H](C)NC(=O)[C@H](C)NC(=O)[C@H](C)NC(=O)[C@H](C)NC(=O)[C@@H](N)Cc1ccccc1)C(=O)O,pIC50,HLA-DR DRB1*0401 (DR4); DRB1 *0401,6.70
CC[C@H](C)[C@H](N)C(=O)NCC(=O)N[C@@H](Cc1c[nH]cn1)C(=O)N[C@@H](CC(C)C)C(=O)N[C@@H](Cc1ccc(O)cc1)C(=O)N[C@H](C(=O)N[C@@H](Cc1ccccc1)C(=O)N[C@@H](C)C(=O)N[C@H](C(=O)N[C@@H](CS)C(=O)N[C@@H](CC(C)C)C(=O)NCC(=O)N[C@@H](CC(C)C)C(=O)N[C@@H](CO)C(=O)N[C@@H](Cc1ccc(O)cc1)C(=O)N[C@@H](CC(=O)O)C(=O)NCC(=O)N[C@@H](CC(C)C)C(=O)O)[C@@H](C)O)[C@@H](C)CC,pIC50,HLA-DR DRB1*0401 (DR4); DRB1 *0401,< 6.09
CC[C@H](C)[C@H](NC(=O)[C@@H](NC(=O)[C@@H]1CCCN1C(=O)[C@H](Cc1ccccc1)NC(=O)[C@H](Cc1ccccc1)NC(=O)[C@H](Cc1ccc(O)cc1)NC(=O)[C@H](CCC(N)=O)NC(=O)[C@H](Cc1c[nH]c2ccccc12)NC(=O)[C@H](CC(N)=O)NC(=O)CNC(=O)[C@@H](N)C(C)C)C(C)C)C(=O)N[C@@H](Cc1ccccc1)C(=O)N[C@@H](CO)C(=O)N[C@@H](CCCCN)C(=O)N[C@@H](C)C(=O)O,pIC50,HLA-DR DRB1*0101 (DR1); DRB1 *0101,7.43
same,pIC50,HLA-DR DRB1*0401 (DR4); DRB1 *0401,8.39
same,pIC50,HLA-DR DRB1*0701 (DR7); DRB1 *0701,7.00
(43)AADFGIFIDFHA,pIC50,HLA-DR DRB1*0401 (DR4); read-out: DRB1 *0401,6.63
(43)AAIGFFFFKKGIA,pIC50,HLA-DR DRB1*0401 (DR4); read-out: DRB1 *0401,6.59
(43)AAIGGIFIFKKDA,pIC50,HLA-DR DRB1*0401 (DR4); read-out: DRB1 *0401,6.10
(46)AAKTAAAFA,pIC50,HLA-DR DRB1*0101 (DR1); read-out: DRB1 *0101,5.30
(52)AAAATKAAAA,pIC50,HLA-DR DRB1*0101 (DR1); read-out: DRB1 *0101,5.70
AAAAASAAAAAAA,pIC50,HLA-DR DRB1*0101 (DR1); DRB1 *0101,≤ 4.30
same,pIC50,HLA-DR DRB1*0401 (DR4); DRB1 *0401,6.63
AAAKAAAAAAAAF,pIC50,HLA-DR DRB1*0101 (DR1); DRB1 *0101,< 5.78
same,pIC50,HLA-DR DRB1*0401 (DR4); DRB1 *0401,< 6.46
AAAKAAAAAAAFA,pIC50,HLA-DR DRB1*0101 (DR1); DRB1 *0101,≤ 4.30
AAAKAAAAAAFAA,pIC50,HLA-DR DRB1*0401 (DR4); DRB1 *0401,6.63
AAAKAAAAFAAAA,pIC50,HLA-DR DRB1*0101 (DR1); DRB1 *0101,≤ 4.30
AAANAAAAAAAAA,pIC50,HLA-DR DRB1*0101 (DR1),≤ 4.30
AADDDDDDDDDDA,pIC50,HLA-DR DRB1*0101 (DR1); DRB1 *0101,≤ 4.30
AAEAAAATAKAAA,pIC50,HLA-DR DRB1*0101 (DR1); DRB1 *0101,5.60
AAFFFFFGGGGGA,pIC50,HLA-DR DRB1*0101 (DR1); DRB1 *0101,≤ 4.30
same,pIC50,HLA-DR DRB1*0401 (DR4); DRB1 *0401,6.10
AAFIFIGGGKIKA,pIC50,HLA-DR DRB1*0101 (DR1); DRB1 *0101,≤ 4.30
same,pIC50,HLA-DR DRB1*0401 (DR4); DRB1 *0401,6.71
AAKAAAAAAA(10)AA,pIC50,HLA-DR DRB1*0401 (DR4); read-out: DRB1 *0401,< 6.05
AAKGIKIGFGIFA,pIC50,HLA-DR DRB1*0101 (DR1); DRB1 *0101,≤ 4.30
same,pIC50,HLA-DR DRB1*0401 (DR4); DRB1 *0401,6.33
AAKIFIGFFIDGA,pIC50,HLA-DR DRB1*0401 (DR4); DRB1 *0401,6.70
AALKATAAAAAAA,pIC50,HLA-DR DRB1*0101 (DR1); DRB1 *0101,≤ 4.30
same,pIC50,HLA-DR DRB1*0401 (DR4); DRB1 *0401,6.10
AAYAAAATAKAAA,pIC50,HLA-DR DRB1*0101 (DR1); read-out: DRB1 *0101,8.41
same,pIC50,HLA-DR DRB1*0401 (DR4); read-out: DRB1 *0401,9.27
ACAAAKATAAAA(10)AA,pIC50,HLA-DR DRB1*0101 (DR1); read-out: DRB1 *0101,5.30
AFAAAKTAA,pIC50,HLA-DR DRB1*0401 (DR4); DRB1 *0401,6.24
AFAAAKTAA(72),pIC50,HLA-DR DRB1*0101 (DR1); read-out: DRB1 *0101,5.30
AFLRAAAAAAFAA,pIC50,HLA-DR DRB1*0101 (DR1); DRB1 *0101,≤ 4.30
same,pIC50,HLA-DR DRB1*0401 (DR4); DRB1 *0401,6.40
AFLRQAAAAAFAAY,pIC50,HLA-DR DRB1*0101 (DR1); DRB1 *0101,5.60
same,pIC50,HLA-DR DRB1*0401 (DR4); DRB1 *0401,6.00
AWVAWRNRCK,pIC50,HLA-DR DRB1*0101 (DR1); read-out: DRB1 *0101,≤ 4.30
same,pIC50,HLA-DR DRB1*0701 (DR7); read-out: DRB1 *0701,< 4.90
Ac-ASQKRPSQRHGSKYLATAST,pIC50,HLA-DR DRB5*0101 (DR51),5.34
DPNANPNVDPNAN,pIC50,HLA-DR DRB1*0401 (DR4); read-out: DRB1 *0401,6.13
same,pIC50,HLA-DR DRB1*0701 (DR7); read-out: DRB1 *0701,< 4.81
EERVKKPLSEITIRC,pIC50,HLA-DR DRB1*0401 (DR4); DRB1 *0401,4.92
same,pIC50,HLA-DR DRB1*0701 (DR7); DRB1 *0701,5.02
same,pIC50,HLA-DR DRB4*0101 (DR53); DRB4 *0101,5.52
same,pIC50,HLA-DR DRB5*0101 (DR51),5.10
EGDAFELTVSC,pIC50,HLA-DR DRB1*0401 (DR4); read-out: DRB1 *0401,6.24
ENPVVAFFKNIVTPR,pIC50,HLA-DR DRB1*1501 (DR15); DRBI *1501,8.55
same,pIC50,HLA-DR DRB5*0101 (DR51),6.52
ENPVVHAFKNIVTPR,pIC50,HLA-DR DRB1*1501 (DR15); DRBI *1501,8.39
same,pIC50,HLA-DR DRB5*0101 (DR51),6.04
ENPVVHFFANIVTPR,pIC50,HLA-DR DRB1*1501 (DR15); DRBI *1501,8.54
same,pIC50,HLA-DR DRB5*0101 (DR51),5.21
ENPVVHFFKIHVTPA,pIC50,HLA-DR DRB1*1501 (DR15); read-out: DRBI *1501,8.60
ESTGMTPEKVPVSEVM,pIC50,HLA-DR DRB1*1302 (DR13),< 4.76
same,pIC50,HLA-DR DRB4*0101 (DR53); read-out: DRB4 *0101,< 4.19
FFKNIVTFFKNIVT,pIC50,HLA-DR DRB1*0101 (DR1); DRB1 *0101,≤ 4.30
same,pIC50,HLA-DR DRB1*0401 (DR4); DRB1 *0401,< 6.18
same,pIC50,HLA-DR DRB1*0701 (DR7); DRB1 *0701,< 4.90
FLGQQQPFPPQ,pIC50,HLA-DR DRB4*0101 (DR53); DRB4 *0101,7.51
FLYGALLLAEGFYTTGAVRQ,pIC50,HLA-DR DRB1*1501 (DR15); DRBI *1501,7.35
same,pIC50,HLA-DR DRB5*0101 (DR51),6.59
FSYFPSI [FSYFPSI],pIC50,HLA-DR DRB1*0101 (DR1); DRB1 *0101,≤ 4.30
GRLEYCLKDRRNFDI,pIC50,HLA-DR DRB5*0101 (DR51),4.19
HFFKNIVTPRTPPY,pIC50,HLA-DR DRB1*1501 (DR15); DRBI *1501,6.34
same,pIC50,HLA-DR DRB5*0101 (DR51),6.42
HFNMLKNKMQSSFFM,pIC50,HLA-DR DRB1*0101 (DR1); DRB1 *0101,7.92
same,pIC50,HLA-DR DRB1*0401 (DR4); DRB1 *0401,7.74
same,pIC50,HLA-DR DRB1*0701 (DR7); DRB1 *0701,5.49
same,pIC50,HLA-DR DRB1*1501 (DR15); DRBI *1501,6.21
same,pIC50,HLA-DR DRB4*0101 (DR53); DRB4 *0101,6.03
same,pIC50,HLA-DR DRB5*0101 (DR51),7.22
IRNLALQTLP,pIC50,HLA-DR DRB4*0101 (DR53); DRB4 *0101,8.52
